The values below are quoted from earlier work in patent US20200170950A1, “COMPOSITIONS COMPRISING A CANNABINOID OR A CANNABIS-DERIVED COMPOUND, METHODS OF MAKING AND USE” (priority 2018, published 2020).

One data set concerns the target CB2 receptor (Homo sapiens, UniProt P34972).
For the next data set, the target named is T1, 5-HT1A receptor (Homo sapiens, UniProt P08908).
T1 sequence (P08908 1-422): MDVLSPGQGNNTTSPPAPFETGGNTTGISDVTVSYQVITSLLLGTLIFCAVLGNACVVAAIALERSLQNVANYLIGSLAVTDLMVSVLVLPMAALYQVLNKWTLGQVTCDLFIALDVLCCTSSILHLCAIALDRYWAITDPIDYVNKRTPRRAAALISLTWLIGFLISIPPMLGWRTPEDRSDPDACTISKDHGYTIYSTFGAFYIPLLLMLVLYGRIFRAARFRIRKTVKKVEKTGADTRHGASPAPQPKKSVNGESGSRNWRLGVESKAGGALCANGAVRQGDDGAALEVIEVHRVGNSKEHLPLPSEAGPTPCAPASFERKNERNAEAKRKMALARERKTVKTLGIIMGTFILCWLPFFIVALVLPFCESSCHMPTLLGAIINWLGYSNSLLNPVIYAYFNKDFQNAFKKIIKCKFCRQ

For a further data set, the target named is CB1 receptor (Homo sapiens, UniProt P21554).
Sequence of CB1 receptor (P21554 whole entry): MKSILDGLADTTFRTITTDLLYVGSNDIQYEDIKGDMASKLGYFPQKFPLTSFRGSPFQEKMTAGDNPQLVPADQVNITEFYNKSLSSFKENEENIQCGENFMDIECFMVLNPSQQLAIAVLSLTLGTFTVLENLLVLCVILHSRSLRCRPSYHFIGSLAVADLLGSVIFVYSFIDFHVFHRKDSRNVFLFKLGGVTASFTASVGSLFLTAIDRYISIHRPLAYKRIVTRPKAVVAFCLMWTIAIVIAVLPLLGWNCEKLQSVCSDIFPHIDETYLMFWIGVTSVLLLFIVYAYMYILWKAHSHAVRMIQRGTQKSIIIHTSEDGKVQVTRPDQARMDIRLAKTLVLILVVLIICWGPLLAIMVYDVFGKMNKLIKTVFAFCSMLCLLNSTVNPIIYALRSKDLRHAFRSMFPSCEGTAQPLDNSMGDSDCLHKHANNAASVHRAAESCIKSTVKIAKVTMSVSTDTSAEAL

Sequence of CB2 receptor (P34972 whole entry): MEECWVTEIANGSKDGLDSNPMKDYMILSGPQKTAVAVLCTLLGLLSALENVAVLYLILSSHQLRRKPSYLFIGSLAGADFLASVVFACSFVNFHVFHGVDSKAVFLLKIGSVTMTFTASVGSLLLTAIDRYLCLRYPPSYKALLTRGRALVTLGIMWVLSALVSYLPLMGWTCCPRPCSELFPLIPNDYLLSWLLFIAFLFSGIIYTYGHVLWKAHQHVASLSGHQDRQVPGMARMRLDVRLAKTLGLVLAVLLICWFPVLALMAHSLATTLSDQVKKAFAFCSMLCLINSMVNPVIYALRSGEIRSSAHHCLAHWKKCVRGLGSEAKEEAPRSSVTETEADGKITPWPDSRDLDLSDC

In the case of `CCCCCc1cc(O)c(C/C=C(\C)CCC=C(C)C)c(O)c1` [CBG, Cannabigerol], the “activity/affinity at CB2 receptor” value on CB2 receptor is “antagonist”. The “affinity, 5-HT1A receptor antagonist” value at 5-HT1A receptor is listed as “moderate affinity”. The “affinity, α2-adrenergic receptor agonist” value in the data set on α2-adrenergic receptor is reported as “high affinity”. Moreover, the “activity/affinity at CB1 receptor” value on CB1 receptor is “low affinity”.

On to `CCCCCc1cc(O)c2c(c1)OC(C)(C)c1ccc(C)cc1-2` [CBN, Cannabinol], for which the “activity/affinity at CB2 receptor” value on CB2 receptor is reported as “higher affinity”. The “activity/affinity at CB1 receptor” value at CB1 receptor is listed as “partial agonist”.
